Data: ChEMBL document CHEMBL1201861, “Genomics of Drug Sensitity in Cancer screening data, Wellcome Trust Sanger Institute”

Assays:
[1] = test system: REH; experiment: cells; type: functional, cell-based, Homo sapiens; conditions: Homo sapiens, REH;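 further: growth inhibition of REH cells determined with a cell viability read-out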
Description: SANGER: Inhibition of human REH cell growth in a cell viability assay.

[2] = test system: SU-DHL-1; experiment: SANGER: Inhibition of human SU-DHL-1 cell growth in a cell viability assay.; type: functional, cell-based; conditions: Homo sapiens, SU-DHL-1
[3] = test system: L-540; experiment: cells; type: functional, cell-based, Homo sapiens; conditions: Homo sapiens, L-540;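 further: growth inhibition of the human L-540 cell line, read out with a viability assay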
Description: SANGER: Inhibition of human L-540 cell growth in a cell viability assay.

[4] = test system: EHEB; experiment: cells; type: functional, cell-based, Homo sapiens; conditions: Homo sapiens, EHEB;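 further: growth inhibition of human EHEB cells, read out with a cell viability assay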
Description: SANGER: Inhibition of human EHEB cell growth in a cell viability assay.

[5] = test system: DMS-153; experiment: cells; type: functional, cell-based, Homo sapiens; conditions: Homo sapiens, DMS-153
Description: SANGER: Inhibition of human DMS-153 cell growth in a cell viability assay.

[6] = test system: RPMI-6666; experiment: cells; type: functional, cell-based, Homo sapiens; conditions: Homo sapiens, RPMI-6666
Description: SANGER: Inhibition of human RPMI-6666 cell growth in a cell viability assay.

[7] = test system: EB2; experiment: cells; type: functional, cell-based, Homo sapiens; conditions: Homo sapiens, EB2;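 further: growth inhibition of EB2 cells, read out with a cell viability assay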
Description: SANGER: Inhibition of human EB2 cell growth in a cell viability assay.

[8] = test system: LC-1F; experiment: cells; type: functional, cell-based, Homo sapiens; conditions: Homo sapiens, LC-1F;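 further: growth inhibition of human LC-1F cells, read out with a cell viability assay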
Description: SANGER: Inhibition of human LC-1F cell growth in a cell viability assay.

[9] = test system: LB647-SCLC; experiment: cells; type: functional, cell-based, Homo sapiens; conditions: Homo sapiens, LB647-SCLC;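 further: cell growth inhibition, read out by a viability assay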
Description: SANGER: Inhibition of human LB647-SCLC cell growth in a cell viability assay.

[10] = test system: Daudi; experiment: cells; type: functional, cell-based, Homo sapiens; conditions: Homo sapiens, Daudi;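 further: growth inhibition of Daudi cells, read out by a viability assay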
Description: SANGER: Inhibition of human Daudi cell growth in a cell viability assay.

[11] = test system: KP-N-YN; experiment: cells; type: functional, cell-based, Homo sapiens; conditions: Homo sapiens, KP-N-YN;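 further: growth inhibition of KP-N-YN cells, read out with a cell viability assay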
Description: SANGER: Inhibition of human KP-N-YN cell growth in a cell viability assay.

[12] = test system: NALM-6; experiment: cells; type: functional, cell-based, Homo sapiens; conditions: Homo sapiens, NALM-6;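 further: growth inhibition of NALM-6 cells, read out with a cell viability assay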
Description: SANGER: Inhibition of human NALM-6 cell growth in a cell viability assay.

SMILES | IC50 [1] [µM] | IC50 [2] [µM] | IC50 [3] [µM] | IC50 [4] [µM] | IC50 [5] [µM] | IC50 [6] [µM] | IC50 [7] [µM] | IC50 [8] [µM] | IC50 [9] [µM] | IC50 [10] [µM] | IC50 [11] [µM] | IC50 [12] [µM]
C#Cc1cccc(Nc2ncnc3cc(OCCOC)c(OCCOC)cc23)c1 [ERLOTINIB] | > 2 | > 2 | > 2 | > 2 | > 2 | > 2 | > 2 | 0.606 | > 2 | > 2 | – | –
COc1cc2ncn(-c3cc(OCc4ccccc4S(C)(=O)=O)c(C#N)s3)c2cc1OC [GSK-319347A] | > 5 | > 5 | > 5 | – | > 5 | > 5 | > 5 | > 5 | > 5 | > 5 | > 5 | > 5
COc1cc(-c2nn([C@H]3CC[C@H](N4CCN(C(C)=O)CC4)CC3)c3ncnc(N)c23)ccc1NC(=O)c1cc2ccccc2n1C | > 5.12 | > 5.12 | > 5.12 | > 5.12 | > 5.12 | 1.58 | > 5.12 | > 5.12 | 4.89 | > 5.12 | – | 2.24
